The nature of the series: Degradation of glycosaminoglycanes by reactive oxygen species (FIG. 2). Format: biochemical. The following applies: free ferrous ions and hydrogen peroxide; pH value 7.2, 37 degrees Celsius.

SMILES strings stand for the structures.

Take `O=C1O[C@H]([C@@H](O)CO)C(O)=C1O` [vitamin C]: the “degradation of glycosaminoglycanes by reactive oxygen species” value is given as “enhances the degradation of glycosaminoglycanes”.

For the origin of these results see US20060280820A1, “Use of an extract of Aloysia/Verbena/Lippia triphylla/citriodora for the treatment of chronic and/or inflammatory diseases” (priority 2003, published 2006).
